Measured values reported in PubChem BioAssay AID2060908 (Molecular Pharmacology Branch, DTP, NCI, 2025).

Tested on: 186277-243-T-J2-PDC complex spheroids, viability
Test: Anticancer human tumor 186277-243-T-J2-PDC patient-derived colon adenocarcinoma cell line growth inhibition [RAS]
Conditions: for viability, T/C: stronger effect = lower value
Method in brief: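 Agents were tested in combination matrices in half-log decrements from a top concentration at or near clinical Cmax (10 microM if undetermined). Targets were multi-cell spheroids of tumour lines plus HUVEC and MSC stromal cells.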
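Also: spheroids exposed to compounds for 7 days before viability read.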

Compound: CCc1c2c(nc3ccc(O)cc13)-c1cc3c(c(=O)n1C2)COC(=O)[C@]3(O)CC + C=CC(=O)N1CCN(c2nc(OCC3CCCN3C)nc3c(F)c(-c4nc(N)cc(C)c4C(F)(F)F)c(Cl)cc23)C(C)C1
- IC50 (curve of first compound, second compound 0.00316 µM): 18 nM
- IC50 (curve of first compound, second compound 0.01 µM): 15.4 nM
- IC50 (curve of first compound, second compound 0.0316 µM): 28.9 nM
- IC50 (curve of first compound, second compound 0.1 µM): 22.6 nM
- IC50 (curve of first compound, second compound 0.316 µM): 26.2 nM
- IC50 (curve of first compound, second compound 1 µM): 27.5 nM
- viability, T/C (second compound 0.00316 µM, first compound 0.000949 µM): 115%
- viability, T/C (second compound 0.00316 µM, first compound 0.003 µM): 94.9%
- viability, T/C (second compound 0.00316 µM, first compound 0.00949 µM): 61.3%
- viability, T/C (second compound 0.00316 µM, first compound 0.03 µM): 40.9%
- viability, T/C (second compound 0.00316 µM, first compound 0.0949 µM): 22.4%
- viability, T/C (second compound 0.00316 µM, first compound 0.3 µM): 14.9%
- viability, T/C (second compound 0.01 µM, first compound 0.000949 µM): 120%
- viability, T/C (second compound 0.01 µM, first compound 0.003 µM): 87.5%
- viability, T/C (second compound 0.01 µM, first compound 0.00949 µM): 55%
- viability, T/C (second compound 0.01 µM, first compound 0.03 µM): 40.1%
- viability, T/C (second compound 0.01 µM, first compound 0.0949 µM): 25.7%
- viability, T/C (second compound 0.01 µM, first compound 0.3 µM): 14.2%
- viability, T/C (second compound 0.0316 µM, first compound 0.000949 µM): 110%
- viability, T/C (second compound 0.0316 µM, first compound 0.003 µM): 95.6%
- viability, T/C (second compound 0.0316 µM, first compound 0.00949 µM): 68.7%
- viability, T/C (second compound 0.0316 µM, first compound 0.03 µM): 56.6%
- viability, T/C (second compound 0.0316 µM, first compound 0.0949 µM): 21.8%
- viability, T/C (second compound 0.0316 µM, first compound 0.3 µM): 15.6%
- viability, T/C (second compound 0.1 µM, first compound 0.000949 µM): 109%
- viability, T/C (second compound 0.1 µM, first compound 0.003 µM): 98.1%
- viability, T/C (second compound 0.1 µM, first compound 0.00949 µM): 68.7%
- viability, T/C (second compound 0.1 µM, first compound 0.03 µM): 46%
- viability, T/C (second compound 0.1 µM, first compound 0.0949 µM): 20.3%
- viability, T/C (second compound 0.1 µM, first compound 0.3 µM): 13.7%
- viability, T/C (second compound 0.316 µM, first compound 0.000949 µM): 89.2%
- viability, T/C (second compound 0.316 µM, first compound 0.003 µM): 91.9%
- viability, T/C (second compound 0.316 µM, first compound 0.00949 µM): 65.5%
- viability, T/C (second compound 0.316 µM, first compound 0.03 µM): 51%
- viability, T/C (second compound 0.316 µM, first compound 0.0949 µM): 24.5%
- viability, T/C (second compound 0.316 µM, first compound 0.3 µM): 17.4%
- viability, T/C (second compound 1 µM, first compound 0.000949 µM): 93.2%
- viability, T/C (second compound 1 µM, first compound 0.003 µM): 76.1%
- viability, T/C (second compound 1 µM, first compound 0.00949 µM): 73%
- viability, T/C (second compound 1 µM, first compound 0.03 µM): 47.1%
- viability, T/C (second compound 1 µM, first compound 0.0949 µM): 29%
- viability, T/C (second compound 1 µM, first compound 0.3 µM): 17.5%

Compound: O=C(c1ccc(F)c(F)c1Nc1ccc(I)cc1F)N1CC(O)([C@@H]2CCCCN2)C1
- viability, T/C (compound 0.00316 µM): 102% [middle of 4 runs]
- viability, T/C (compound 0.01 µM): 93.3% [middle of 4 runs]
- viability, T/C (compound 0.0316 µM): 94.1% [middle of 4 runs]
- viability, T/C (compound 0.1 µM): 39.6% [middle of 4 runs]
- viability, T/C (compound 0.316 µM): 9.71% [middle of 4 runs]
- viability, T/C (compound 1 µM): 5.17% [middle of 4 runs]
- IC50 (curve of compound): 79.7 nM [middle of 4 runs]

Compound: CC(=O)OC12COC1CC(O)C1(C)C(=O)C(O)C3=C(C)C(OC(=O)C(O)C(NC(=O)OC(C)(C)C)c4ccccc4)CC(O)(C(OC(=O)c4ccccc4)C21)C3(C)C (stereo unspecified) + CCn1c(-c2cccnc2C(C)OC)c2c3cc(ccc31)N1CCOC(CC(NC(=O)C(C(C)C)N(C)C(=O)C3(F)CCN(C(=O)C#CC(C)(C)N(C)C)CC3)C(=O)N3CCCC(N3)C(=O)OCC(C)(C)C2)C1
- IC50 (curve of first compound, second compound 0.000949 µM): < 31.6 nM
- IC50 (curve of first compound, second compound 0.003 µM): < 31.6 nM
- IC50 (curve of first compound, second compound 0.00949 µM): < 31.6 nM
- IC50 (curve of first compound, second compound 0.03 µM): < 31.6 nM
- IC50 (curve of first compound, second compound 0.0949 µM): < 31.6 nM
- IC50 (curve of first compound, second compound 0.3 µM): < 31.6 nM
- viability, T/C (second compound 0.000949 µM, first compound 0.0316 µM): 6.09%
- viability, T/C (second compound 0.000949 µM, first compound 0.1 µM): 4.29%
- viability, T/C (second compound 0.000949 µM, first compound 0.316 µM): 4.45%
- viability, T/C (second compound 0.000949 µM, first compound 1 µM): 5%
- viability, T/C (second compound 0.000949 µM, first compound 3.16 µM): 4.34%
- viability, T/C (second compound 0.000949 µM, first compound 10 µM): 4.13%
- viability, T/C (second compound 0.003 µM, first compound 0.0316 µM): 6%
- viability, T/C (second compound 0.003 µM, first compound 0.1 µM): 5.13%
- viability, T/C (second compound 0.003 µM, first compound 0.316 µM): 5.03%
- viability, T/C (second compound 0.003 µM, first compound 1 µM): 4.41%
- viability, T/C (second compound 0.003 µM, first compound 3.16 µM): 4.14%
- viability, T/C (second compound 0.003 µM, first compound 10 µM): 4.35%
- viability, T/C (second compound 0.00949 µM, first compound 0.0316 µM): 6.17%
- viability, T/C (second compound 0.00949 µM, first compound 0.1 µM): 4.96%
- viability, T/C (second compound 0.00949 µM, first compound 0.316 µM): 4.57%
- viability, T/C (second compound 0.00949 µM, first compound 1 µM): 4.98%
- viability, T/C (second compound 0.00949 µM, first compound 3.16 µM): 4.48%
- viability, T/C (second compound 0.00949 µM, first compound 10 µM): 3.96%
- viability, T/C (second compound 0.03 µM, first compound 0.0316 µM): 5.87%
- viability, T/C (second compound 0.03 µM, first compound 0.1 µM): 4.93%
- viability, T/C (second compound 0.03 µM, first compound 0.316 µM): 4.72%
- viability, T/C (second compound 0.03 µM, first compound 1 µM): 3.83%
- viability, T/C (second compound 0.03 µM, first compound 3.16 µM): 4.63%
- viability, T/C (second compound 0.03 µM, first compound 10 µM): 4.2%
- viability, T/C (second compound 0.0949 µM, first compound 0.0316 µM): 5.78%
- viability, T/C (second compound 0.0949 µM, first compound 0.1 µM): 4.53%
- viability, T/C (second compound 0.0949 µM, first compound 0.316 µM): 4.78%
- viability, T/C (second compound 0.0949 µM, first compound 1 µM): 4.23%
- viability, T/C (second compound 0.0949 µM, first compound 3.16 µM): 4.24%
- viability, T/C (second compound 0.0949 µM, first compound 10 µM): 4.22%
- viability, T/C (second compound 0.3 µM, first compound 0.0316 µM): 4.84%
- viability, T/C (second compound 0.3 µM, first compound 0.1 µM): 3.52%
- viability, T/C (second compound 0.3 µM, first compound 0.316 µM): 3.6%
- viability, T/C (second compound 0.3 µM, first compound 1 µM): 3.55%
- viability, T/C (second compound 0.3 µM, first compound 3.16 µM): 3.32%
- viability, T/C (second compound 0.3 µM, first compound 10 µM): 3.72%
